3 molecules from PMC6385087, “New Multitarget Hybrids Bearing Tacrine and Phenylbenzothiazole Motifs as Potential Drug Candidates for Alzheimer’s Disease” (Molecules, 2019) can be followed below.

The target in series [1] is T1, AChE from electric eel (Electrophorus electricus, UniProt O42275).
T1 construct: commercially available enzyme AChE 500 U (extracted from electrophorus electricus); purchased type VI-S; host or cells: extracted from electric eel
The experiment in a line: biochemical. The settings on record: means of two experiments, read-out: Inhibition of AChE (IC50). Here is the method: The analytical grade reagents were purchased from Sigma-Aldrich (St. Louis, MO, USA) and Acros (Thermo Fisher Scientific, Geel, Belgium) and were used without any further purification. The organic solvents were dried and distilled according to standard methods described in literature. […] The Proton and Carbon-13 NMR were recorded either on Bruker AVANCE III-300 (300 MHz and 75.5 MHz) or Bruker AVANCE III-400 (400 MHz and 100.5 MHz) NMR spectrometers (Billerica, MA, USA) at 25 °C using peaks of solvents as internal standard. The chemical shift values of protons or carbons were measured on a δ scale and the coupling constant values (J) were determined in Hertz. In the NMR representation, abbreviations are mentioned as: singlet represented by s, doublet represented by d, triplet represented by t, multiplet represented by m, double doublet represented by dd, and broad singlet represented by brs. The Leica Galen III hot stage apparatus (Leica Microsystems, Wetzlar, Germany) was used for measuring the melting points of compounds. […] The AChE inhibitory activity was measured in a 1 cm path length quartz cell through a Perkin Elmer Lambda 35 spectrophotometer equipped with a temperature programmer PTP1+1 Peltier System (T = 25.0 ± 0.1 °C) (Waltham, MA, USA). Electrospray ionization-mass (ESI-MS) measurements were carried out on a LCQ Fleet mass spectrometer (Thermo Scientific, S. Jose, CA, USA) operated in the ESI positive and negative ion modes.
Modified Ellman’s method was used as described previously for the determination of AChE activity. The AChE stock solution was prepared by dissolving commercially available enzyme AChE 500 U (extracted from electrophorus electricus) in 10 mL of TRIS buffer (50 mM, pH 8). HEPES buffer was used for the dilution of the enzyme to give the final AChE concentration. The assay solution consisted of 374 μL of 4-(2-hydroxyethyl)-1-piperazineethanesulfonic acid (Hepes) buffer (50 mM, pH 8.0), 476 μL of 3 mM bis(3-carboxy-4-nitrophenyl)disulfide (DTNB), 25 μL of AChE (type VI-S, from electric eel) stock solution, a variable volume (10–50 μL) of the compound’s stock solution (1 mg/mL of MeOH), and the necessary amount of methanol to attain the same volume of sample mixture (0.925 mL) in a 1 mL cuvette. Samples were left to react for 15 min and then the reaction was monitored at wavelength of 405 nm for 5 min, after adding 75 μL of 16 mM acetylthiocholine iodide (AChI) solution. Assays were run with a blank containing all the components except AChE, which was replaced by HEPES buffer. The velocities of the reaction were calculated as well as the enzyme activity. A control reaction was carried out using the sample solvent (methanol) in the absence of any tested compound, and it was considered as 100% activity. […] The inhibition curves were obtained by plotting the percentage of enzymatic inhibition versus inhibitor concentration and a calibration curve was obtained from which the linear regression parameters were calculated.

Series [2] relates to SH-SY5Y cells. Put plainly: Neuroprotection against Aβ1–42 induced toxicity, MTT reduction. Format: cell-based, human. To be noted: Aβ1-42 1 μM, 24 h after 1 h pre-treatment, compounds: 16 2.5 µM, 17 0.5 µM, 14 and 15 0.2 µM, 19 and 18 1 µM. As for the experimental part:
The neuroprotective effect of TAC-PhBTA conjugates was evaluated using SH-SY5Y cells treated with Aβ1–42 peptides or ascorbate/iron. For each compound, a dose-response curve was performed to select a non-toxic concentration in order to analyze its neuroprotective effect (Figure 3).
SH-SY5Y human neuroblastoma cell line (ATCC-CRL-2266) grown in Dulbecco’s modified Eagle’s medium (DMEM) obtained from Gibco-Invitrogen (Life Technologies Ltd., Liverpool, UK) with 10% heat inactivated fetal calf serum, containing 50 U/mL penicillin, and 50 μg/mL streptomycin, under a humidified atmosphere of 95% air-5% CO2 at 37 °C. Cells were plated at 0.12 × 10^6 cells/mL for cell viability assay. The tested compounds (16, 17, 14, 15, 19 and 18) were dissolved in DMSO at a concentration of 25 mM and aliquots were stored at −20 °C. We performed a dose-response screening (from 0.2 μM to 5 μM) in order to choose the highest non-toxic concentration. As a result we selected a 2.5 μM final concentration for compound 16; 0.5 μM final concentration for compound 17; 0.2 μM final concentration for compounds 14 and 15; and a 1 μM final concentration for compounds 19 and 18. […] The compounds were added to the cell media 1 h before the incubation with Aβ1–42 or ferrous sulfate/L-ascorbic acid. Aβ1–42 or ferrous sulfate/L-ascorbic acid where incubated alone or with the compound for an additional 24 h. Aβ1–42 was prepared as 276.9 μM stock in sterile water and added to the medium at 1 μM final concentration. Ferrous sulfate was freshly prepared as 0.36 M stock in water and added to the medium at 500 μM final concentration. L-Ascorbic Acid was freshly prepared as 80 mM stock in water and added to the medium at 5 mM final concentration. […]
Cell viability was determined by a MTT (3-(4,5-dimethylthiazol-2-yl)-2,5-diphenyltetrazolium bromide) reduction test. […] The absorbance was measured at 570 nm. Cell reduction ability was expressed as a percentage of untreated control cells.
All data were expressed as mean ± S.E.M. of at least three independent experiments performed in duplicates. […]

A short description of series [3]: Solubility in methanol. It counts as physicochemical.

Each structure is given as a SMILES string. Entries after “also recorded” stand apart in the source; their conditions may differ.

T1 sequence (O42275 24-633): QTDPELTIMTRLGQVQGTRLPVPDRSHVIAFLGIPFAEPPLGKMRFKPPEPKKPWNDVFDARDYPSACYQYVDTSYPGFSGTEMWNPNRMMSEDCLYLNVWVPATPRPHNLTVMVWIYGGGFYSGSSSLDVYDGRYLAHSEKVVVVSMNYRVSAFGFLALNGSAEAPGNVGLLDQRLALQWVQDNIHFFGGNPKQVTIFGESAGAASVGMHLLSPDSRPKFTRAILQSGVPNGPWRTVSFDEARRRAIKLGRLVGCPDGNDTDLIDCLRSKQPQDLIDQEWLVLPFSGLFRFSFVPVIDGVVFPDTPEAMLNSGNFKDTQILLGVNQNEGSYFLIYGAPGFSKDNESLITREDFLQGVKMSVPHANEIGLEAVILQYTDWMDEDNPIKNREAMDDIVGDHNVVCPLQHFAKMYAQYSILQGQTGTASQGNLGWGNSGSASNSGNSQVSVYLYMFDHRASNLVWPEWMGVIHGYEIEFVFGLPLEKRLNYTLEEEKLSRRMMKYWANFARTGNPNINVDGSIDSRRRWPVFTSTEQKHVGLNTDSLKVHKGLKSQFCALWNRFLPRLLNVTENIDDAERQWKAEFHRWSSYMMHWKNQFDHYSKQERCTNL

As for `COc1cc(-c2nc3ccccc3s2)ccc1OCC(=O)NCCNc1c2c(nc3cc(Cl)ccc13)CCCC2` [compound 15, 2-(4-(Benzo[d]thiazol-2-yl)-2-methoxyphenoxy)-N-(2-((6-chloro-1,2,3,4 tetrahydroacridin-9-yl)amino)ethyl)acetamide], in series [1], the half-inhibitory concentration (IC50) worked out at 60 nM. For the same molecule, in series [2], the “Prevention of Aβ-induced cell toxicity (cell viability, MTT)” value (“Prevention of Aβ-induced cell toxicity” for short) was “capacity to prevent Aβ-induced toxicity; also recorded: prevented Aβ-induced cell toxicity”.

For the molecule `COc1cc(-c2nc3ccccc3s2)ccc1OCC(=O)NCCCNc1c2c(nc3ccccc13)CCCC2` [compound 16, 2-(4-(Benzo[d]thiazol-2-yl)-2-methoxyphenoxy)-N-(3-((1,2,3,4-tetrahydroacridin-9-yl)amino)propyl)acetamide], the 50% inhibitory concentration (IC50) in series [1] is 150 nM. Further, the Solubility in methanol result in series [3] was “soluble in methanol”. Moreover, the “Prevention of Aβ-induced cell toxicity” value in series [2] is “capacity to prevent Aβ-induced toxicity; also recorded: prevented Aβ-induced cell toxicity”.

With `COc1cc(-c2nc3ccccc3s2)ccc1OCC(=O)NCC(O)CNc1c2c(nc3cc(Cl)ccc13)CCCC2` (stereo not shown) [compound 19, 2-(4-(Benzo[d]thiazol-2-yl)-2-methoxyphenoxy)-N-(3-((6-chloro-1,2,3,4-tetrahydroacridin-9-yl)amino)-2-hydroxypropyl)acetamide], in series [1], the 50% inhibitory concentration (IC50) stood at 140 nM. The “Prevention of Aβ-induced cell toxicity” value in series [2] is “capacity to prevent Aβ-induced toxicity; also recorded: prevented Aβ-induced cell toxicity”.
